Measured values taken from publication PMC8957246, “Synthesis and diverse biological activity profile of triethylammonium isatin-3-hydrazones” (ADMET & DMPK, 2022).
In brackets after ≈: the same amount, converted by molar mass. Where a name gives a salt, the structure may show the parent alone. Marks after values point to notes of the source that are not given here.

Columns and labels:
[1] = tested on: platelets (collagen-induced aggregation); experiment: Platelet aggregation (Born method), collagen-induced; format: cell-based; details: Homo sapiens, collagen 5 mg/mL, final concentration 2×10^–3 mol/L, median (25-75 percentiles), read-out: Platelets aggregation, % of control, Collagen
Protocol: (§1) The in vitro experiments were performed using the blood of healthy male donors aged 18-24 years (total 54 donors). The study was approved by the Ethics Committee of Federal State Budgetary Educational Institution of Higher Education at the Bashkir State Medical University of the Ministry of Health of Russian Federation (No.2 dated 17.10.2012). Informed consent was obtained from all participants before blood sampling. The blood was collected from the cubital vein using the system of vacuum blood collection BD Vacutainer® (Becton, Dickinson and Company, USA). A 3.8 % sodium citrate solution in a 9:1 ratio was used as a venous blood stabiliser. The study of the effect on platelet aggregation was performed using the Born method using the aggregometer «AT-02» (SPC Medtech, Russia). The assessment of antiplatelet activity of the studied compounds and reference preparations was started with the final concentration of 2×10^–3 mol/L. Adenosine diphosphate (ADP; 20 μg/mL) and collagen (5 mg/mL) manufactured by Tehnologia-Standart Company, Russia, were used as inducers of aggregation. The study on the anticoagulant activity was performed by standard recognised clotting tests using the optical two-channel automatic analyser of blood coagulation Solar CGL 2110 (CJSC SOLAR, Belarus). The following parameters were studied: activated partial thromboplastin time (APTT), prothrombin time (PT) and fibrinogen concentrations according to the Clauss method. The determination of anticoagulant activity of the studied compounds and reference preparation was performed in a concentration of 5×10^–4 g/mL using the reagents manufactured by Tehnologia-Standart Company (Barnaul, Russia). The results of the study were processed using the statistical package Statistica 10.0 (StatSoft Inc, USA). The Shapiro–Wilk’s test was used to check the normality of actual data distribution. The form of distribution of the data obtained differed from the normal one; therefore, non-parametric methods were used for further analysis. The data were presented as medians and 25 and 75 percentiles. Analysis of variance was conducted using Kruskal–Wallis test. A p value of 0.05 was considered statistically significant.

[2] = tested on: platelets (ADP-induced aggregation); experiment: Platelet aggregation (Born method), ADP-induced; format: cell-based; details: Homo sapiens, ADP 20 μg/mL, final concentration 2×10^–3 mol/L, median (25-75 percentiles), read-out: Platelets aggregation, % of control, ADP
Protocol: as §1

[3] = tested on: Pseudomonas fluorescens EL-2.1; experiment: Bactericidal activity, agar diffusion, Ps. fluorescens; format: cell-based
Source text: (§2) Plant pathogenic bacterial strains Micrococcus luteus B-109, Pectobacterium atrosepticum 1043, Pectobacterium carotovorum subsp. carotovorum MI, Pseudomonas fluorescens EL-2.1, and Xanthomonas campestris B-610 and fungal strain Fusarium oxysporum IBPPM 543 were obtained from the specialized scientific culture collection of IBPPM RAS (WFCC no. 975, WDCM no. 1021) (CM IBPPM). Pathogenic fungus Phytophthora cactorum VKM F-985 provided by the All-Russian Collection of Microorganisms (VKM) and deposited at A.E. Favorsky Irkutsk Institute of Chemistry, SB RAS, was also used as test organism. Bacteria M. luteus, P. carotovorum subsp. carotovorum, P. atrosepticum, and Ps. fluorescens were grown in meat-peptone medium (BP), and X. campestris was grown in the medium with glucose, yeast extract, and calcium carbonate (GYCa). Solid media contained Bacto agar (18 g/L); pH was adjusted to 7.2-7.4. All bacterial cultures were grown at 28°C. The mycelial cultures of F. oxysporum and P. cactorum were grown on a glucose-peptone-yeast (GPY) nutrient medium at 27 °C. For inoculum preparation, both fungal strains were initially grown on the agar GPY in Petri dishes and then transferred into the seed medium by punching out 5 mm of the agar plate culture with a self-designed cutter.
(§3) Antibacterial and antifungal activities of the compounds were explored using the agar diffusion method and the technique of a phytopathogen radial growth inhibition. Method of diffusion in agar (measuring the diameter of growth inhibition zones) was used for determining the bactericidal activity. The 6-mm wells were made in ager medium (GYCa for Xanthomonas campestris or BP for other bacteria). Bacterial suspensions were distributed over the agar surface, and the tested compound's solution (150 μl) was added to each well. The width of growth inhibition zones around the wells was determined after incubation for 36-40 h.
(§4) The solutions of tested compounds were prepared with a concentration of 2 mmol/l (stock solution). For comparison, test compounds were also commonly applied disinfecting agents and antibiotics.

[4] = tested on: Xanthomonas campestris B-610; experiment: Bactericidal activity, agar diffusion, X. campestris; format: cell-based
Source text: as §2, §3, §4

[5] = tested on: Pectobacterium atrosepticum 1043; experiment: Bactericidal activity, agar diffusion, P. atrosepticum; format: cell-based
Source text: as §2, §3, §4

[6] = tested on: Pectobacterium carotovorum subsp. carotovorum MI; experiment: Bactericidal activity, agar diffusion, P. carotovorum; format: cell-based
Source text: as §2, §3, §4

Micrococcus luteus B-109 = experiment: Bactericidal activity, agar diffusion, M. luteus; format: cell-based
Source text: as §2, §3, §4

[7] = tested on: Phytophthora cactorum VKM F-985; experiment: Fungicidal activity, radial growth inhibition, P. cactorum; format: cell-based; details: for Inhibition value, I (%): C 10 μg/mL
Source text: as §2
(§5) For the fungicidal activity analysis, radial growth (colony diameters) of the fungi on a solid medium in the absence and in the presence of the compounds 3a,c-g solutions at various concentrations were compared. The method consisted of the following: sterile, melted and then cooled to about 60°C GPY agar medium (20.0 ml) was mixed with the precisely measured volumes of the solutions under question, and poured into a sterile Petri dish (90 mm i.d.). After solidification of GPY agar, the media were inoculated by the fungus using 10-day-old cultures of F. oxysporum or P. cactorum. The inoculation was done by transferring a 5-mm (i.d.) GPY-agar block covered with mycelium to the center of the Petri dish followed by incubation in a thermostat at 27°C. The fungicidal effect was scored by the size of mycelium colony on a Petri dish compared to the control without fungicidal admixtures to GPY agar. Each treatment was performed in at least four replicates in two independent experiments. The observation period ended when the control Petri dish was filled with mycelium (usually after 12 days). The inhibition of the phytopathogen colony growth by the compounds 3a,c-g or fludioxonil solutions was calculated as a percentage by which the mycelium radial propagation was decreased compared to the unaffected control, the latter was taken as 100 % of growth (or zero percent of inhibition). The EC50 value was calculated as the compound concentration at which the radial growth of the fungus colony was decreased by 50 % relative to the non-fungicidal control, according to the formula EC50 = 50C/I based on the approach developed e.g., in [34, 35].
as §4

[8] = tested on: Fusarium oxysporum IBPPM 543; experiment: Fungicidal activity, radial growth inhibition, F. oxysporum; format: cell-based; details: for Inhibition value, I (%): C 10 μg/mL
Source text: as §2, §5, §4

[9] = tested on: methicillin-resistant strains of S. aureus (MRSA-1); experiment: Antimicrobial activity, serial dilution (MIC/MBC), MRSA-1; format: cell-based; details: Staphylococcus aureus
Protocol: (§6) The antimicrobial activity of the test compounds was determined by the serial dilution technique in Muller Hinton Broth 2 and in Sabouradu broth for fungi. The cultures used for testing included Gram-positive bacteria: Staphylococcus aureus ATCC 6538P FDA 209P, Bacillus cereus ATCC 10702 NCTC 8035, Enterococcus faecalis ATCC 29212; Gram-negative bacteria: Escherichia coli ATCC 25922, Pseudomonas aeruginosa ATCC 9027, and fungi: Trichophyton mentagrophytes var. gypseum 1773, and Candida albicans ATCC 10231; methicillin-resistant strains of S. aureus (MRSA) was obtained from hospital patients with chronic tonsillitis in the Republican Clinical Hospital (Kazan, Russia). The bacterial load was 3.0 × 10^5 cfu/ml. The fungi load was 2.0 × 10^3 cfu/ml. The results were recorded every 24 h for 5-7 days. Cultures were incubated at 37 °C. The experiment was repeated three times. […] The minimum inhibitory concentration (MIC) was defined as the minimum concentration of a compound that inhibits the growth of the corresponding test microorganism. The growth of bacteria, as well as the absence of the growth due to the bacteriostatic action of compounds, were recorded.
(§7) Synthesized compounds were further evaluated for antimicrobial activity against test microorganisms: Staphylococcus aureus ATCC 209p (Sa), Bacillus cereus ATCC 8035 (Bc), Escherichia coli CDC F-50 (Ec), Enterococcus faecalis (Ef), Pseudomonas aeruginosa ATCC 9027, Aspergillus niger BKMF-1119, Trichophyton mentagrophytes var. gypseum 1773, and Candida albicans 855-653 including methicillin-resistant strains of S. aureus (MRSA 1 and MRSA 2). The minimum inhibitory (MIC) and minimum bactericidal (MBC) concentrations of ammonium salts were determined against these pathogens (Table 1). Due to the lack of activity of compounds 3a-g against Gram-negative bacterial strains and some fungi, the corresponding data are not shown.

[10] = tested on: Staphylococcus aureus ATCC 6538P FDA 209P; experiment: Antimicrobial activity, serial dilution (MIC/MBC), Sa; format: cell-based; details: Staphylococcus aureus
Protocol: as §6, §7

[11] = tested on: Bacillus cereus ATCC 10702 NCTC 8035; experiment: Antimicrobial activity, serial dilution (MIC/MBC), Bc; format: cell-based; details: Bacillus cereus
Protocol: as §6, §7

[12] = tested on: methicillin-resistant strains of S. aureus (MRSA-2); experiment: Antimicrobial activity, serial dilution (MIC/MBC), MRSA-2; format: cell-based; details: Staphylococcus aureus
Protocol: as §6, §7

[13] = tested on: Enterococcus faecalis ATCC 29212; experiment: Antimicrobial activity, serial dilution (MIC/MBC), Ef; format: cell-based; details: ATCC29212
Protocol: as §6, §7

[14] = tested on: activated partial thromboplastin time (intrinsic coagulation pathway); experiment: Anticoagulant activity, clotting test APTT; set-up: species or system human; details: concentration 5×10^–4 g/mL; median (25-75 percentiles)
Protocol: as §1

## CC[N+](CC)(CC)CC(=O)N/N=C1\C(=O)N(Cc2cc(C(C)(C)C)c(O)c(C(C)(C)C)c2)c2ccccc21 (as salt: bromide) [Compound 3a, 2-(2-(1-(3,5-Di-tert-butyl-4-hydroxybenzyl)-2-oxoindolin-3-ylidene)hydrazinyl)-N,N,N-triethyl-2-oxoethanammonium bromide]
other
  melting point: 212 °C

## CC[N+](CC)(CC)CC(=O)N/N=C1\C(=O)N(Cc2cc(C(C)(C)C)c(O)c(C(C)(C)C)c2)c2c(C)cccc21 (as salt: bromide) [Compound 3b, 2-(2-(1-(3,5-Di-tert-butyl-4-hydroxybenzyl)-7-methyl-2-oxoindolin-3-ylidene)hydrazinyl)-N,N,N-triethyl-2-oxoethanammonium bromide]
other
  melting point: 154 °C

## CCc1cccc2c1N(Cc1cc(C(C)(C)C)c(O)c(C(C)(C)C)c1)C(=O)/C2=N\NC(=O)C[N+](CC)(CC)CC (as salt: bromide) [Compound 3c, 2-(2-(1-(3,5-Di-tert-butyl-4-hydroxybenzyl)-7-ethyl-2-oxoindolin-3-ylidene)hydrazinyl)-N,N,N-triethyl-2-oxoethanammonium bromide]
other
  melting point: 163 °C

## CC[N+](CC)(CC)CC(=O)N/N=C1\C(=O)N(Cc2cc(C(C)(C)C)c(O)c(C(C)(C)C)c2)c2cccc(Br)c21 (as salt: bromide) [Compound 3e, 2-(2-(1-(3,5-Di-tert-butyl-4-hydroxybenzyl)-4-bromo-2-oxoindolin-3-ylidene)hydrazinyl)-N,N,N-triethyl-2-oxoethanammonium bromide]
other
  melting point: 194 °C

## CC(=O)Oc1ccccc1C(=O)O [Acetylsalicylic acid, reference compound]
[1]
  inhibition at 2000 µM: 14.7%
[2]
  inhibition at 2000 µM: 13.7%

## N=C(NCCCCCCNC(=N)NC(=N)Nc1ccc(Cl)cc1)NC(=N)Nc1ccc(Cl)cc1 [Chlorohexidin, reference compound]
[3]; 500 μg/mL
  width of the inhibition zone: 4 mm
[4]; 500 μg/mL
  width of the inhibition zone: 5 mm
[5]; 500 μg/mL
  width of the inhibition zone: 4 mm
[6]; 500 μg/mL
  width of the inhibition zone: 5 mm
Micrococcus luteus B-109; 500 μg/mL
  width of the inhibition zone: 5 mm

## N#Cc1c[nH]cc1-c1cccc2c1OC(F)(F)O2 [Fludioxonil, reference compound]
[7]; age of the fungus 3 days
  Inhibition value, I (%): 46%
[7]; age of the fungus 5 days
  Inhibition value, I (%): 38%
[7]; age of the fungus 7 days
  Inhibition value, I (%): 18%
[7]; age of the fungus 9 days
  Inhibition value, I (%): 12%
[7]; age of the fungus 12 days
  Inhibition value, I (%): 9%
[7]; Phytophthora cactorum, 168 h, read-out: EC50, μg/mL at day 7
  EC50: 27.8 µg/mL (≈ 112 µM)
[8]; age of the fungus 3 days
  Inhibition value, I (%): 38%
[8]; age of the fungus 5 days
  Inhibition value, I (%): 23%
[8]; age of the fungus 7 days
  Inhibition value, I (%): 6%
[8]; age of the fungus 9 days
  Inhibition value, I (%): 4%
[8]; Fusarium oxysporum, IBPPM543, 168 h, read-out: EC50, μg/mL at day 7
  EC50: 83.3 µg/mL (≈ 336 µM)

## CCn1cc(C(=O)O)c(=O)c2cc(F)c(N3CCNCC3)cc21 [Norfloxacin, reference compound]
[9]
  MIC: 391 ± 30 µM (≈ 125 µg/mL)
[3]; Pseudomonas fluorescens, EL2.1, 500 μg/mL, read-out: width of the inhibition zone
  zone of inhibition at 500 µg/mL: 8 mm
[4]; Xanthomonas campestris, B610, read-out: width of the inhibition zone
  zone of inhibition at 500 µg/mL: 7 mm
[10]
  MIC: 7.5 ± 0.5 µM (≈ 2.4 µg/mL)
[10]; read-out: MBC (converted)
  MBC: 7.5 ± 0.6 µM (≈ 2.4 µg/mL)
[11]
  MBC: 24.4 ± 2.1 µM (≈ 7.79 µg/mL)
[11]; read-out: MIC
  MIC: 24.4 ± 2.1 µM (≈ 7.79 µg/mL)
[12]
  MIC: 30 ± 2.6 µM (≈ 9.58 µg/mL)
[5]; Pectobacterium atrosepticum, 1043, 500 μg/mL, read-out: width of the inhibition zone
  zone of inhibition at 500 µg/mL: 7 mm
[13]
  MBC: 7.5 ± 0.6 µM (≈ 2.4 µg/mL)
  MIC: 7.5 ± 0.5 µM (≈ 2.4 µg/mL)
[6]; Pectobacterium carotovorum, 500 μg/mL, read-out: width of the inhibition zone
  zone of inhibition at 500 µg/mL: 8 mm
Micrococcus luteus B-109; Micrococcus luteus, B109, 500 μg/mL, read-out: width of the inhibition zone
  zone of inhibition at 500 µg/mL: 7 mm

## [Na+].[O-]Cl [sodium hypochlorite, reference compound]
[3]; 1000 μg/mL
  width of the inhibition zone: 4 mm
[4]; 1000 μg/mL
  width of the inhibition zone: 4 mm
[5]; 1000 μg/mL
  width of the inhibition zone: 4 mm
[6]; 1000 μg/mL
  width of the inhibition zone: 3 mm
Micrococcus luteus B-109; 1000 μg/mL
  width of the inhibition zone: 2.5 mm

## Heparin sodium [reference compound]
[14]
  APTT, % of control: +20.3 (19.7-21.4) ^** % of control
